The values below come from patent US10611732B2, “HIV replication inhibiting pyrimidines” (Janssen Pharmaceutica NV, priority 2001, dated 2020).

In one data set the test system is HIV. Description: microbe, parasite or virus in culture. The procedure:
(§1) A rapid, sensitive and automated assay procedure was used for the in vitro evaluation of anti-HIV agents. An […] T4-cell line, MT-4, which was previously shown (Koyanagi et al., Int. J Cancer, 36, 445-451, 1985) to be highly susceptible to and permissive for HIV infection, served as the target cell line. Inhibition of the HIV-induced cytopathic effect was used as the end point. The viability of both HIV- and mock-infected cells was assessed spectrophotometrically via the in situ reduction of 3-(4,5-dimethylthiazol-2-yl)-2,5-diphenyltetrazolium bromide (MTT). The 50% cytotoxic concentration (CC50 in M) was defined as the concentration of compound that reduced the absorbance of the mock-infected control sample by 50%. The percent protection achieved by the compound in HIV-infected cells was calculated by the following formula:
(§2) [formula] whereby (ODT)HIV is the optical density measured with a given concentration of the test compound in HIV-infected cells; (ODC)HIV is the optical density measured for the control untreated HIV-infected cells; (ODC)MOCK is the optical density measured for the control untreated mock-infected cells; all optical density values were determined at 540 nm. The dose achieving 50% protection according to the above formula was defined as the 50% inhibitory concentration (IC50 in M). The ratio of CC50 to IC50 was defined as the selectivity index (SI).
(§3) Table 6 lists the pIC50 (−log IC50), pCC50 (−log CC50) and pSI (pCC50-pIC50) values for the compounds of formula (I).

Data set [1] is described as follows: cytotoxicity in mock-infected MT-4 cells (MTT). As to conditions: human, mock-infected MT-4 cells. The procedure:
as §1, §2, §3

Structures are written as SMILES.

Regarding `Cc1cc(/C=C(/F)C#N)cc(C)c1Oc1ccnc(Nc2ccc(C#N)cc2)n1` [Compound 110], the melting point (commonly the temperature, or range, at which the solid turns liquid) came out at 254 °C. Further, in the data set with HIV (Human immunodeficiency virus 1, MT4, read-out: pIC50 (−log IC50), HIV-infected MT-4 cells (converted), dose achieving 50% protection, MTT, OD 540 nm), the half-inhibitory concentration (IC50) (as a rule, the concentration needed to halve the response being measured) is 0.00251 µM. Further, the “pSI (pCC50-pIC50)” value in the data set on HIV (selectivity index, ratio of CC50 to IC50, as log difference) is given as −4.3. The CC50 (usually the concentration that lowers cell viability or growth by half) in data set [1] was 50.1 µM.
